Reference: US20240262848A1, “HETEROCYCLIC COMPOUNDS, COMPOSITIONS THEREOF, AND METHODS OF TREATMENT THEREWITH” (BeiGene, Ltd., priority 2022, published 2024)

Key:
[1] = biological target: GST-tagged GDP-loaded KRAS G12V (amino acids 1-169) (Homo sapiens, UniProt P01116, G12V); test: KRAS G12V probe displacement assay (TR-FRET); format: binding; settings: Table 4; KRAS G12V 2 nM, biotinylated probe 2 2.5 nM
Description: Plates are incubated at 24 °C for 1 hr. […] After 1 hr incubation at 24° C.

[2] = system: pERK1/2(THR202/TYR204) level in SW620 cell line; test: KRAS G12V pERK assay in SW620 cells (HTRF); format: cell-based; settings: Homo sapiens, SW-620, Table 4, 2 hrs compound treatment
Description: SW620 cell line was used in this study. Cells were maintained in RPMI 1640 supplemented with 10% fetal bovine serum (Thermo Fisher), 50 units/mL penicillin and streptomycin (Thermo Fisher) and kept at 37° C. in a humidified atmosphere of 5% CO2 in air. Cells were reinstated from frozen stocks that were laid down within 30 passages from the original cells purchased. 40000 cells per well were seeded into a 96-well plate and incubated overnight. Cells were treated with a 10-point dilution series. The final compound concentration is from 0 to 10 μM. After 2 hrs compound treatment, cells were lysed, and the pERK1/2(THR202/TYR204) level in the cell lysates was detected by HTRF kit (Cisbio). In brief, a total of 16 μL of cell lysate from each well of a 96-well plate was transferred to a 384-well white assay plate. Lysate from each well was incubated with 2 μL of Eu3+-cryptate (donor) labeled anti-phospho-ERK1/2 and 2 μL of D)2 (acceptor) labeled anti-phospho-ERK1/2 antibodies (Cisbio) overnight in dark at room temperature. When donor and acceptor are in close proximity, excitation of the donor with laser triggers a Fluorescence Resonance Energy Transfer (FRET) towards the acceptor, which in turn fluoresces at 655 nm wavelength. FRET signals were measured using a PHERAstar FSX reader (BMG Labtech). IC50 determination was performed by fitting the curve of percent inhibition versus the log of the inhibitor concentration using Dotmatics.

Sequence of GST-tagged GDP-loaded KRAS G12V (amino acids 1-169) (P01116 1-169 isoform P01116-2 G12V): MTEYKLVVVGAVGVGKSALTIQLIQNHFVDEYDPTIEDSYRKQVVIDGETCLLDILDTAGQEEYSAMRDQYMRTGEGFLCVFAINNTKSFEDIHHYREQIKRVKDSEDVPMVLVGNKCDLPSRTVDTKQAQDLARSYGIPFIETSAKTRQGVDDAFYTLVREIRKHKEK

SMILES | IC50 [1] | IC50 [2]
Nc1cc(Cl)c(C(F)(F)F)c(-c2nc3c4c(nc(OC[C@@]56CCCN5C[C@H](F)C6)nc4c2F)N(C2CC2)CCO3)c1 [Example 8, 3-chloro-5-(10-cyclopropyl-4-fluoro-2-(((2R,7aS)-2-fluorotetrahydro-1H-pyrrolizin-7a(5H)-yl)methoxy)-9,10-dihydro-8H-7-oxa-1,3,6,10-tetraazacyclohepta[de]naphthalen-5-yl)-4-(trifluoromethyl)aniline] | 9.9 nM | 716 nM
CN1CCCOc2nc(-c3cc(N)cc(Cl)c3C(F)(F)F)c(F)c3nc(OC[C@@]45CCCN4C[C@H](F)C5)nc1c23 [Example 9, 3-chloro-5-(4-fluoro-2-(((2R,7aS)-2-fluorotetrahydro-1H-pyrrolizin-7a(5H)-yl)methoxy)-11-methyl-8,9,10,11-tetrahydro-7-oxa-1,3,6,11-tetraazacycloocta[de]naphthalen-5-yl)-4-(trifluoromethyl)aniline] | 5.2 nM | 249 nM
CN1CC2(COC2)COc2nc(-c3cc(N)cc(Cl)c3C(F)(F)F)c(F)c3nc(OC[C@@]45CCCN4C[C@H](F)C5)nc1c23 [Example 11, 3-chloro-5-(4-fluoro-2-(((2R,7aS)-2-fluorotetrahydro-1H-pyrrolizin-7a(5H)-yl)methoxy)-11-methyl-10,11-dihydro-8H-7-oxa-1,3,6,11-tetraazaspiro[cycloocta[de]naphthalene-9,3′-oxetan]-1(11a), 2,3a, 3 al(6a), 5-pentaen-5-yl)-4-(trifluoromethyl)aniline] | 16 nM | 624 nM
CC1CN(C)c2nc(OC[C@@]34CCCN3C[C@H](F)C4)nc3c(F)c(-c4cc(N)cc(Cl)c4C(F)(F)F)nc(c23)O1 (stereo partly drawn) [Example 12, 3-chloro-5-(4-fluoro-2-(((2R,7aS)-2-fluorotetrahydro-1H-pyrrolizin-7a(5H)-yl)methoxy)-8,10-dimethyl-9,10-dihydro-8H-7-oxa-1,3,6,10-tetraazacyclohepta[de]naphthalen-5-yl)-4-(trifluoromethyl)aniline] | 3.2 nM | 152 nM
C#Cc1c(F)ccc2cc(O)cc(-c3nc4c5c(nc(OC[C@@]67CCCN6C[C@H](F)C7)nc5c3F)N(C3CCC3)CCCO4)c12 [Example 13, 4-(11-cyclobutyl-4-fluoro-2-(((2R,7aS)-2-fluorotetrahydro-1H-pyrrolizin-7a(5H)-yl)methoxy)-8,9,10,11-tetrahydro-7-oxa-1,3,6,11-tetraazacycloocta[de]naphthalen-5-yl)-5-ethynyl-6-fluoronaphthalen-2-ol] | 1.4 nM | 141 nM
CC1CCN(C)c2nc(OC[C@@]34CCCN3C[C@H](F)C4)nc3c(F)c(-c4cc(N)cc(Cl)c4C(F)(F)F)nc(c23)O1 (stereo partly drawn) [Example 14, 3-chloro-5-(4-fluoro-2-(((2R,7aS)-2-fluorotetrahydro-1H-pyrrolizin-7a(5H)-yl)methoxy)-8,11-dimethyl-8,9,10,11-tetrahydro-7-oxa-1,3,6,11-tetraazacycloocta[de]naphthalen-5-yl)-4-(trifluoromethyl)aniline] | 13 nM | 414 nM
CC1COc2nc(-c3cc(N)cc(Cl)c3C(F)(F)F)c(F)c3nc(OC[C@@]45CCCN4C[C@H](F)C5)nc(c23)N(C)C1 (stereo partly drawn) [Example 15, 3-chloro-5-(4-fluoro-2-(((2R,7aS)-2-fluorotetrahydro-1H-pyrrolizin-7a(5H)-yl)methoxy)-9,11-dimethyl-8,9,10,11-tetrahydro-7-oxa-1,3,6,11 tetraazacycloocta[de]naphthalen-5-yl)-4-(trifluoromethyl)aniline] | 8.6 nM | 371 nM
CCc1c(F)ccc2cc(O)cc(-c3nc4c5c(nc(OC[C@@]67CCCN6C[C@H](F)C7)nc5c3F)N(C)C(C)CCO4)c12 (stereo partly drawn) [Example 16, 5-ethyl-6-fluoro-4-(4-fluoro-2-(((2R,7aS)-2-fluorotetrahydro-1H-pyrrolizin-7a(5H)-yl)methoxy)-10,11-dimethyl-8,9,10,11-tetrahydro-7-oxa-1,3,6,11-tetraazacycloocta[de]naphthalen-5-yl)naphthalen-2-ol] | 1.4 nM | 50 nM
